Values belong to the compound of their own block, whether it stands above or below them.
What was measured:
Type in all cases: in vivo
[1] = test system: Zea mays (ZEAMX); assay: Post-emergence crop plant compatibility, greenhouse pot test; conditions: 1.25 g/ha, vs untreated controls
How it was run: (§1)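 Greenhouse pot test; post-emergence foliar spray at one-leaf stage, WP or EC in water + 0.5% additive, 600 l/ha. Visual rating after ~3 wk, % relative to untreated (0–100%).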

[2] = test system: Triticum aestivum (TRZAS); assay: as above; conditions: vs untreated controls
How it was run: as §1

[3] = test system: Oryza sativa (ORYSA); assay: Post-emergence crop plant compatibility, greenhouse pot test (also comparative test C); conditions: vs untreated controls
How it was run: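 Visual damage versus untreated plants (0% = like control, 100% = plants died) was scored about 3 weeks after a post-emergence spray in greenhouse pots. Treatment: one-leaf stage, WP or EC in water at 600 l/ha with 0.5% additive; a/b/c mark different dosages on the same crop.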

[4] = test system: Setaria viridis (SETVI); assay: Post-emergence herbicidal action, greenhouse pot test (also comparative test C)
How it was run: (§2)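 Greenhouse pot plants in sandy loam were sprayed post-emergence at the one-leaf stage (2–3 weeks after sowing) with WP or EC formulations plus 0.5% additive at 600 l/ha water. Activity was rated visually after about 3 weeks versus untreated controls (100% = dead, 0% = like control); rates were 20 g/ha or less, and 5 g/ha or less in the comparative test.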

[5] = test system: Alopecurus myosuroides (ALOMY); assay: as above; conditions: rated visually after about 3 weeks vs untreated controls, 100% = plants have died
How it was run: as §2

[6] = test system: Matricaria inodora (MATIN); assay: as above
How it was run: as §2

[7] = test system: Echinochloa crus-galli (ECHCG); assay: as above
How it was run: as §2

[8] = test system: Viola tricolor (VIOTR); assay: Post-emergence herbicidal action, greenhouse pot test
How it was run: (§3)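 Activity was scored by eye about 3 weeks after treatment against untreated plants, where 100% means dead plants and 0% means no difference. Plants at the one-leaf stage received a foliar spray of WP or EC formulations in water plus 0.5% additive (600 l/ha, up to 20 g/ha). Plants were grown in sandy loam pots in a greenhouse for 2–3 weeks before spraying.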

[9] = test system: Abutilon theophrasti (ABUTH); assay: as above; conditions: rated visually after about 3 weeks vs untreated controls, 100% = plants have died
How it was run: as §3

[10] = test system: Amaranthus retroflexus (AMARE); assay: as above; conditions: rated visually after about 3 weeks vs untreated controls, 100% = plants have died
How it was run: as §3

[11] = test system: Avena fatua (AVEFA); assay: as above; conditions: rated visually after about 3 weeks vs untreated controls, 100% = plants have died
How it was run: as §3

[12] = test system: Veronica persica (VERPE); assay: as above
How it was run: as §3

[13] = test system: Pharbitis purpurea (PHBPU); assay: as above
How it was run: as §3

[14] = test system: Polygonum convolvulus (POLCO); assay: as above
How it was run: as §3

- Post-emergence action against ZEAMX (crop plant compatibility) [1]: 10%
- Post-emergence action against TRZAS (crop plant compatibility) ([2]; 1.25 g/ha): 0%
- Post-emergence action against TRZAS (crop plant compatibility) ([2]; 5 g/ha): 10%
- Post-emergence action against TRZAS (crop plant compatibility) ([2]; 20 g/ha): 20%
- Post-emergence action against ORYSA (crop plant compatibility) ([3]; 1.25 g/ha): 0%
- Post-emergence action against ORYSA (crop plant compatibility) ([3]; 5 g/ha): 0%
Structure (SMILES): Cn1c(C(F)(F)F)cc(=O)n(-c2cc(Oc3ccccc3OCC(=O)OCCOC(F)(F)F)c(C#N)cc2F)c1=O [I.9-41]
- Post-emergence action against SETVI ([4]; 20 g/ha): 100%
- Post-emergence action against SETVI in % ([4]; dosage 1.25 g/ha): 100%
- Post-emergence action against SETVI in % ([4]; dosage 5 g/ha): 100%
- Post-emergence action at 20 g/ha against ALOMY in % ([5]; 20 g/ha): 80%
- Post-emergence action against MATIN in % ([6]; dosage 1.25 g/ha): 100%
- Post-emergence action against MATIN in % ([6]; dosage 5 g/ha): 100%
- Post-emergence action against MATIN in % ([6]; dosage 20 g/ha): 100%
- Post-emergence action against ECHCG in % ([7]; dosage 5 g/ha): 80%
- Post-emergence action against ECHCG in % ([7]; dosage 20 g/ha): 100%
- Post-emergence action against VIOTR ([8]; 1.25 g/ha): 90%
- Post-emergence action against VIOTR ([8]; 5 g/ha): 100%
- Post-emergence action against VIOTR ([8]; 20 g/ha): 100%
- Post-emergence action at 1.25 g/ha against ABUTH in % ([9]; 1.25 g/ha): 100%
- Post-emergence action at 5 g/ha against ABUTH in % ([9]; 5 g/ha): 100%
- Post-emergence action at 20 g/ha against ABUTH in % ([9]; 20 g/ha): 100%
- Post-emergence action at 1.25 g/ha against AMARE in % ([10]; 1.25 g/ha): 100%
- Post-emergence action at 5 g/ha against AMARE in % ([10]; 5 g/ha): 100%
- Post-emergence action at 20 g/ha against AMARE in % ([10]; 20 g/ha): 100%
- Post-emergence action at 20 g/ha against AVEFA in % ([11]; 20 g/ha): 80%
- Post-emergence action against VERPE ([12]; 5 g/ha): 100%
- Post-emergence action against VERPE ([12]; 20 g/ha): 100%
- Post-emergence action against PHBPU in % ([13]; dosage 1.25 g/ha): 100%
- Post-emergence action against PHBPU in % ([13]; dosage 5 g/ha): 100%
- Post-emergence action against PHBPU in % ([13]; dosage 20 g/ha): 100%
- Post-emergence action against POLCO in % ([14]; dosage 5 g/ha): 90%
- Post-emergence action against POLCO in % ([14]; dosage 20 g/ha): 100%

- Post-emergence action against ZEAMX (crop plant compatibility) [1]: 0%
- Post-emergence action against TRZAS (crop plant compatibility) ([2]; 1.25 g/ha): 0%
- Post-emergence action against TRZAS (crop plant compatibility) ([2]; 5 g/ha): 20%
- Post-emergence action against ORYSA (crop plant compatibility) ([3]; 1.25 g/ha): 0%
- Post-emergence action against ORYSA (crop plant compatibility) ([3]; 5 g/ha): 20%
Structure (SMILES): Cn1c(C(F)(F)F)cc(=O)n(-c2cc(Oc3ccccc3OCC(=O)OCC#N)c(C#N)cc2F)c1=O [I.9-176, Cyanomethyl (2-{2-cyano-4-fluoro-5-[3-methyl-2,6-dioxo-4-(trifluoromethyl)-3,6-dihydropyrimidin-1(2H)-yl]phenoxy}phenoxy)acetate]
- pest or weed control at 20 g/ha ([4]; Setaria viridis, 504 h, 20 g/ha, read-out: Post-emergence action against SETVI): 100%
- pest or weed control at 1.25 g/ha ([4]; Setaria viridis, 504 h, dosage 1.25 g/ha, read-out: Post-emergence action against SETVI in %): 100%
- pest or weed control at 5 g/ha ([4]; Setaria viridis, 504 h, dosage 5 g/ha, read-out: Post-emergence action against SETVI in %): 100%
- pest or weed control at 5 g/ha ([5]; Alopecurus myosuroides, 504 h, 5 g/ha, read-out: Post-emergence action at 5 g/ha against ALOMY in %): 100%
- pest or weed control at 20 g/ha ([5]; Alopecurus myosuroides, 504 h, 20 g/ha, read-out: Post-emergence action at 20 g/ha against ALOMY in %): 100%
- pest or weed control at 5 g/ha ([6]; Tripleurospermum inodorum, 504 h, dosage 5 g/ha, read-out: Post-emergence action against MATIN in %): 100%
- pest or weed control at 20 g/ha ([6]; Tripleurospermum inodorum, 504 h, dosage 20 g/ha, read-out: Post-emergence action against MATIN in %): 100%
- Post-emergence action at 1.25 g/ha against ECHCG in % ([7]; 1.25 g/ha, rated visually after about 3 weeks vs untreated controls, 100% = plants have died): 100%
- pest or weed control at 5 g/ha ([7]; Echinochloa crus-galli, 504 h, dosage 5 g/ha, read-out: Post-emergence action against ECHCG in %): 100%
- pest or weed control at 20 g/ha ([7]; Echinochloa crus-galli, 504 h, dosage 20 g/ha, read-out: Post-emergence action against ECHCG in %): 100%
- pest or weed control at 1.25 g/ha ([8]; Viola tricolor, 504 h, 1.25 g/ha, read-out: Post-emergence action against VIOTR): 100%
- pest or weed control at 5 g/ha ([8]; Viola tricolor, 504 h, 5 g/ha, read-out: Post-emergence action against VIOTR): 100%
- pest or weed control at 20 g/ha ([8]; Viola tricolor, 504 h, 20 g/ha, read-out: Post-emergence action against VIOTR): 100%
- pest or weed control at 1.25 g/ha ([9]; Abutilon theophrasti, 504 h, 1.25 g/ha, read-out: Post-emergence action at 1.25 g/ha against ABUTH in %): 100%
- pest or weed control at 5 g/ha ([9]; Abutilon theophrasti, 504 h, 5 g/ha, read-out: Post-emergence action at 5 g/ha against ABUTH in %): 100%
- pest or weed control at 20 g/ha ([9]; Abutilon theophrasti, 504 h, 20 g/ha, read-out: Post-emergence action at 20 g/ha against ABUTH in %): 100%
- pest or weed control at 1.25 g/ha ([10]; Amaranthus retroflexus, 504 h, 1.25 g/ha, read-out: Post-emergence action at 1.25 g/ha against AMARE in %): 100%
- pest or weed control at 5 g/ha ([10]; Amaranthus retroflexus, 504 h, 5 g/ha, read-out: Post-emergence action at 5 g/ha against AMARE in %): 100%
- pest or weed control at 20 g/ha ([10]; Amaranthus retroflexus, 504 h, 20 g/ha, read-out: Post-emergence action at 20 g/ha against AMARE in %): 100%
- Post-emergence action at 5 g/ha against AVEFA in % ([11]; 5 g/ha): 80%
- pest or weed control at 20 g/ha ([11]; Avena fatua, 504 h, 20 g/ha, read-out: Post-emergence action at 20 g/ha against AVEFA in %): 80%
- pest or weed control at 1.25 g/ha ([12]; Veronica persica, 504 h, 1.25 g/ha, read-out: Post-emergence action against VERPE): 100%
- pest or weed control at 5 g/ha ([12]; Veronica persica, 504 h, 5 g/ha, read-out: Post-emergence action against VERPE): 100%
- pest or weed control at 20 g/ha ([12]; Veronica persica, 504 h, 20 g/ha, read-out: Post-emergence action against VERPE): 100%
- pest or weed control at 5 g/ha ([13]; Ipomoea purpurea, 504 h, dosage 5 g/ha, read-out: Post-emergence action against PHBPU in %): 100%
- pest or weed control at 20 g/ha ([13]; Ipomoea purpurea, 504 h, dosage 20 g/ha, read-out: Post-emergence action against PHBPU in %): 100%
- pest or weed control at 20 g/ha ([14]; Fallopia convolvulus, 504 h, dosage 20 g/ha, read-out: Post-emergence action against POLCO in %): 100%

Reference: patent US20240025862A1, “SUBSTITUTED N-PHENYLURACILS AND SALTS THEREOF, AND USE THEREOF AS HERBICIDAL ACTIVE SUBSTANCES” (Bayer Aktiengesellschaft, priority 2020, published 2024)
